The source of these data is patent US20040162295A1, “Pharmaceutical compound” (priority 2001, published 2004).

Data set [1] deals with Factor Xa (Homo sapiens, UniProt P00742). Nature of the data set: Factor Xa inhibition. It is filed as biochemical.
The nature of data set [2]: Oral exposure. It is filed as in vivo.
The nature of data set [3]: Stability study on crystalline forms (temperature, humidity, light). To be noted: for Morphological stability: high relative humidity (above 70%). It is filed as physicochemical. How it is done:
Notes: % expressed with reference to material stored at −70° C.
% RH means percentage relative humidity.

Data set [4] in a line: Behaviour of the solid in the presence of water. It counts as physicochemical. Particulars: in the presence of water / suspended in distilled water, stirred 24 hours. How it is done:
Stability in the presence of water is desirable in a product intended to be formulated in a pharmaceutical composition using a process that brings it into contact with water, such as a wet granulation process used in the preparation of a tablet.
1.5 g of Form 1 of 1-(indole-6-carbonyl-D-phenylglycinyl)-4-(1-methylpiperidin-4-yl)piperazine difumarate was suspended in 10 ml of distilled water and stirred for 24 hours. The suspension thickened after 5-6 hours, but stirring was continued for the remaining time. The suspension was centrifuged to isolate the solid. The solid was washed with cyclohexane and dried at ambient temperature under vacuum.

Data set [5] is described as follows: Vapor pressure isotherm determination / hygroscopicity. It is filed as physicochemical. The text has this: The mono hydrochloride salt of 1-(indole-6-carbonyl-D-phenylglycinyl)-4-(1-methylpiperidin-4-yl)piperazine has also been prepared. The monohydrochloride salt was initially obtained as an amorphous solid. This solid was cycled through a vapor pressure isotherm determination, in which the solid initially deliquesced, then dehydrated.
Using a microbalance flow system, the original material was cycled through a vapor pressure isotherm determination, where the material deliquesced, then allowed to deydrate.

Where [6] appears, read: 40° C./75% RH, 7 Days, difumarate.
[7] abbreviates: 40° C./75% RH, 28 Days, difumarate.

Chain of Factor Xa (P00742 235-488 limits assumed): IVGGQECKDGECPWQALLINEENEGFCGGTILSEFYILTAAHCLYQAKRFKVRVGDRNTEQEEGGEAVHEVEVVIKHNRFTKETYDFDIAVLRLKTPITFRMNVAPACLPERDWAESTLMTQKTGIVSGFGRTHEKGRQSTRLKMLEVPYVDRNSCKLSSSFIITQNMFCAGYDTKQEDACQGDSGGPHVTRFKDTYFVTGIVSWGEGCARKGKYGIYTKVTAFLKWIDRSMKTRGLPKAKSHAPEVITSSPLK
Chain of Factor Xa (P00742 41-179 partner limits assumed): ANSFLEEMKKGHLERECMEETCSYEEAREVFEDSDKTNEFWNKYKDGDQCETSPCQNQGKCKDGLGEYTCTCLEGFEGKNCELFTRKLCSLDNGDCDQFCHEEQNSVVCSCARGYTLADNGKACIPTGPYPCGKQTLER

For the molecule `CN1CCC(N2CCN(C(=O)[C@H](NC(=O)c3ccc4cc[nH]c4c3)c3ccccc3)CC2)CC1` [1-(indole-6-carbonyl-D-phenylglycinyl)-4-(1-methylpiperidin-4-yl)piperazine], the “Inhibition of Factor Xa” value in data set [1] was “potent and selective inhibitor”. In addition, in data set [2], the Oral exposure entry was “good”.
`CN1CCC(N2CCN(C(=O)[C@H](NC(=O)c3ccc4cc[nH]c4c3)c3ccccc3)CC2)CC1.O=C(O)/C=C/C(=O)O.O=C(O)/C=C/C(=O)O` [Form 1, 1-(indole-6-carbonyl-D-phenylglycinyl)-4-(1-methylpiperidin-4-yl)piperazine difumarate]: the “Stability study, % expressed with reference to material stored at −70° C.” value (“Stability study, % expressed” for short) in data set [3] (40° C., 7 Days) turned out to be 100.5%; in data set [3] (40° C., 28 Days), 99.8%; in data set [3] (setting [6]) it was 99.6%; in data set [3] (setting [7]) it was 99.5%; in data set [3] (50° C., 7 Days), 99.3%; in data set [3] (50° C., 28 Days), 99.4%. The “Stability study, % expressed” value was determined as 99.0% in data set [3] (70° C., 7 Days, difumarate); 100.2% in data set [3] (70° C., 28 Days, difumarate); 99.7% in data set [3] (Light, 7 Days); 98.9% in data set [3] (Light, 28 Days). The Morphological stability entry in data set [3] is recorded as “morphologically stable”. In data set [4], the “Stability of the crystalline form in the presence of water” value is “converted into Form 2”.
`CN1CCC(N2CCN(C(=O)[C@H](NC(=O)c3ccc4cc[nH]c4c3)c3ccccc3)CC2)CC1.O=C(O)/C=C/C(=O)O.O=C(O)/C=C/C(=O)O` [Form 2, 1-(indole-6-carbonyl-D-phenylglycinyl)-4-(1-methylpiperidin-4-yl)piperazine difumarate]: the “Stability study, % expressed” value in data set [3] (setting [6]) stood at 99.3%; in data set [3] (setting [7]), 99.6%; in data set [3] (70° C., 7 Days, difumarate), 99.1%; in data set [3] (70° C., 28 Days, difumarate), 99.0%. In addition, the Morphological stability result in data set [3] is on record as “morphologically stable”.
Consider `CN1CCC(N2CCN(C(=O)[C@H](NC(=O)c3ccc4cc[nH]c4c3)c3ccccc3)CC2)CC1` [chloroform solvate, 1-(indole-6-carbonyl-D-phenylglycinyl)-4-(1-methylpiperidin-4-yl)piperazine], for which the “Stability of the crystalline form in the presence of water” value in data set [4] was “tended to convert into a gel”.
Turning to `CN1CCC(N2CCN(C(=O)[C@H](NC(=O)c3ccc4cc[nH]c4c3)c3ccccc3)CC2)CC1.Cl` [compound 1, 1-(indole-6-carbonyl-D-phenylglycinyl)-4-(1-methylpiperidin-4-yl)piperazine hydrochloride], the Hygroscopicity result in data set [5] (amorphous and crystalline material) is listed as “hygroscopic”. Moreover, the “Behaviour of the solid in vapor pressure isotherm determination” value in data set [5] (amorphous solid, microbalance flow system) is on record as “deliquesced”.
